Laboratory results as given in PubChem BioAssay AID493132 (Sanford-Burnham Center for Chemical Genomics, 2011).
The source made the active and inactive calls.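 How the source made its calls: active means EC50 below 100 µM for activating human gut alkaline phosphatase; inactive means the rest.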

These compounds were tested against Intestinal-type alkaline phosphatase (Homo sapiens) (UniProt P09923) (assay: potency of intestinal alkaline phosphatase activation – biochemical, luminescence, SAR follow-up (AID 493132)). Settings: purified IAP, CDP-Star luminescence, 30 min.
Chain of Intestinal-type alkaline phosphatase (Homo sapiens) (P09923 whole entry, looked up): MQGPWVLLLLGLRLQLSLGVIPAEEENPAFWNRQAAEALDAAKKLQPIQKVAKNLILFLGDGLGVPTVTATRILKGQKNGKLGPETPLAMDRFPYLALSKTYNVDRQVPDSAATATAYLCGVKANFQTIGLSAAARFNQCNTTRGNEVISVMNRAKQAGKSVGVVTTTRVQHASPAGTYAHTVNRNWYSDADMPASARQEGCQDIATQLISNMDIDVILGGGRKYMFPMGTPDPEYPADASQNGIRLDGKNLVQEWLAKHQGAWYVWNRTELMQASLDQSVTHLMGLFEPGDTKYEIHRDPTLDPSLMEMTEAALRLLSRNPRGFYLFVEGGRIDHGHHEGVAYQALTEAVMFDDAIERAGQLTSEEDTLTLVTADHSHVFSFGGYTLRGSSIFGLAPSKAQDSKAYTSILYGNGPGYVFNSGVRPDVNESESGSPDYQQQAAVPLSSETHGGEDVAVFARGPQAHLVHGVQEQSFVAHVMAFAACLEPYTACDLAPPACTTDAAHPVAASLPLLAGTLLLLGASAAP
Compound `O=C(N/N=C/c1ccccc1C(=O)O)C(=O)N/N=C/c1ccccc1C(=O)O` has an EC50 of 39.3 µM.
In the case of `Cc1cc(C(=O)N/N=C\c2cc(C(C)(C)C)ccc2O)n[nH]1`, the EC50 is reported as 7.65 µM.
`COc1cc(OC)cc(C(=O)NNC(=O)c2nn(C)c(=O)c3ccccc23)c1` showed an EC50 of 11.8 µM.
With `Cc1cc(C(=O)N/N=C/c2cc(Br)ccc2O)n[nH]1` the EC50 was 9.33 µM.
With `COc1ccc(/C=N/NC(=O)C(=O)N/N=C/c2ccc(OC)c(OC)c2)cc1OC` the EC50 was > 100 µM (inactive).
With `Cc1cc(C(=O)NN=Cc2cccc([N+](=O)[O-])c2O)n[nH]1` the EC50 was 14.6 µM.
Work on `O=C(CCN1C(=O)/C(=C/c2ccccc2Cl)SC1=S)NNC(=O)c1ccccc1O` yielded an EC50 of 25.5 µM.
In the case of `CN(C)c1ccc(/C=N/NC(=O)C(=O)N/N=C/c2ccc(N(C)C)cc2)cc1`, the EC50 is reported as > 100 µM (inactive).
Compound `N#CCOc1ccccc1/C=N/NC(=O)C(=O)N/N=C/c1ccccc1OCC#N` has an EC50 of 86.5 µM.
`COc1cccc(C=NNC(=O)C2=NNC(=O)C2C)c1O` (stereo unspecified) gave an EC50 of 8.22 µM.
In the case of `CCOc1cc(/C=N/NC(=O)C(=O)N/N=C/c2ccc(O)c(OCC)c2)ccc1O`, the EC50 is reported as > 100 µM (inactive).
`O=C(NN=Cc1ccc(O)cc1O)C(=O)NN=Cc1ccc(O)cc1O` was tested, and the EC50 was 6.5 µM.
For `CC1C(=O)NN=C1C(=O)NN=Cc1ccc(O)cc1O` (stereo unspecified), the EC50 was 10.7 µM.
In the case of `C/C(=N\NC(=O)c1cc(C)[nH]n1)c1ccc2ccccc2c1O`, the EC50 is reported as 6.59 µM.
In the case of `COC(=O)c1ccc(/C=N/NC(=O)C(=O)N/N=C/c2ccc(C(=O)OC)cc2)cc1`, the EC50 is reported as > 100 µM (inactive).
`CC(=O)Nc1cccc(C(=O)NNC(=O)c2n[nH]c(=O)c3ccccc23)c1` was tested, and the EC50 was 9.05 µM.
`Cc1ccc(O)c(C=NNC(=O)c2[nH]ncc2Br)c1` was tested, and the EC50 was 18.9 µM.
`CCOc1cccc(C=NNC(=O)c2cc(-c3cccn3C)n[nH]2)c1O` showed an EC50 of 12.5 µM.
`O=C(N/N=C/c1cc(Br)ccc1O)C(=O)N/N=C/c1cc(Br)ccc1O` gave an EC50 of 11 µM.
Work on `O=C(NN=Cc1c(O)ccc2ccccc12)c1[nH]ncc1Br` yielded an EC50 of 9.64 µM.
`COc1cccc(C=NNC(=O)c2[nH]nc3c2CCc2ccccc2-3)c1O` gave an EC50 of 9.65 µM.
`O=C(N/N=C/c1cc(Br)ccc1O)c1cc(C2CC2)[nH]n1` gave an EC50 of 11.3 µM.
For `COc1cc(/C=N\NC(=O)C(=O)N/N=C/c2cc(OC)c(O)c(OC)c2)cc(OC)c1O`, the EC50 was 19.2 µM.
`COc1ccc(OC)c(/C=N/NC(=O)C(=O)N/N=C/c2cc(OC)ccc2OC)c1` gave an EC50 of 90.7 µM.
`Cc1ccc(-c2cc(C(=O)NN=Cc3ccccc3O)n[nH]2)o1` gave an EC50 of 6.19 µM.
With `O=C(N/N=C/c1ccc(O)cc1)C(=O)N/N=C/c1ccc(O)cc1` the EC50 was 43.9 µM.
With `Cn1cccc1-c1cc(C(=O)NN=Cc2cc(Br)ccc2O)[nH]n1` the EC50 was 9.91 µM.
Compound `O=C(NNC(=S)NC(=O)c1ccccc1[N+](=O)[O-])c1ccccc1O` has an EC50 of 15.3 µM.
With `OC(c1nc2ccc(F)cc2[nH]1)C(O)c1nc2ccc(F)cc2[nH]1` (stereo unspecified) the EC50 was 6.78 µM.
In the case of `O=C(N/N=C\c1cccc(O)c1)C(=O)N/N=C/c1cccc(O)c1`, the EC50 is reported as 45 µM.
With `COc1cccc(C=NNC(=O)c2cc(-c3cccn3C)n[nH]2)c1O` the EC50 was 8.6 µM.
`O=C(NC(=S)NNC(=O)c1ccccc1O)c1ccc(F)cc1` was tested, and the EC50 was 9.41 µM.
In the case of `CC(C)C(=O)NC(=S)Nc1ccccc1C(=O)Nc1ccccc1`, the EC50 is reported as 8.68 µM.
For `COc1cc(/C=N/NC(=O)C(=O)N/N=C/c2cc(OC)c(OC)c(OC)c2)cc(OC)c1OC`, the EC50 was > 100 µM (inactive).
`CCOc1cccc(C=NNC(=O)c2cc(C3CC3)[nH]n2)c1O` gave an EC50 of 7.63 µM.
For `CCCCOc1ccc(/C=N/NC(=O)C(=O)N/N=C/c2ccc(OCCCC)cc2)cc1`, the EC50 was > 100 µM (inactive).
Compound `CC(C)Oc1ccccc1/C=N/NC(=O)C(=O)N/N=C/c1ccccc1OC(C)C` has an EC50 of 36.4 µM.
`COc1cc(OC)c(OC)cc1/C=N/NC(=O)C(=O)N/N=C/c1cc(OC)c(OC)cc1OC` was tested, and the EC50 was > 100 µM (inactive).
For `C/C(=N\NC(=O)c1[nH]nc2c1CCc1ccccc1-2)c1ccccc1O`, the EC50 was 8.62 µM.
In the case of `CC(=O)Nc1ccc(/C=N/NC(=O)C(=O)N/N=C/c2ccc(NC(C)=O)cc2)cc1`, the EC50 is reported as > 100 µM (inactive).
Work on `O=C(N/N=C/c1ccccc1O)c1cc(C2CC2)[nH]n1` yielded an EC50 of 10.2 µM.
`O=C(N/N=C/c1ccccc1O)c1n[nH]c2c1CCC2` gave an EC50 of 8.25 µM.
Work on `COc1cccc(C=NNC(=O)C(=O)NN=Cc2cccc(OC)c2OC)c1OC` yielded an EC50 of 30.4 µM.
For `COc1cc(/C=N/NC(=O)C(=O)N/N=C/c2ccc(O)c(OC)c2)ccc1O`, the EC50 was 27.9 µM.
`COc1cccc(C=NNC(=O)C(=O)NN=Cc2cccc(OC)c2O)c1O` gave an EC50 of 9.12 µM.
`O=C(N/N=C/c1c(O)ccc2ccccc12)c1cc(-c2cccs2)[nH]n1` gave an EC50 of 11.1 µM.
In the case of `O=C1Nc2ccc(Br)cc2C12NNc1ccccc1O2` (stereo unspecified), the EC50 is reported as 0.689 µM.
In the case of `O=C(N/N=C/c1c(O)ccc2ccccc12)C(=O)N/N=C/c1c(O)ccc2ccccc12`, the EC50 is reported as > 100 µM (inactive).
Work on `COc1ccc(-c2cc(C(=O)NN=Cc3c(O)ccc4ccccc34)[nH]n2)cc1` yielded an EC50 of 19.6 µM.
`CC(=NNC(=O)C(=O)NN=C(C)c1cccc(O)c1)c1cccc(O)c1` showed an EC50 of 84.6 µM.
`CCN(CC)c1ccc(/C=N/NC(=O)C(=O)N/N=C/c2ccc(N(CC)CC)cc2O)c(O)c1` was tested, and the EC50 was > 100 µM (inactive).
Compound `Cc1cc(C(=O)NN=Cc2cc(Cl)cc([N+](=O)[O-])c2O)n[nH]1` has an EC50 of 13.6 µM.
With `COc1ccc(-c2csc(Nc3cccc4ccccc34)n2)cc1F` the EC50 was > 100 µM (inactive).
With `O=C(N/N=C\c1ccc2c(c1)OCO2)C(=O)N/N=C/c1ccc2c(c1)OCO2` the EC50 was > 100 µM (inactive).
With `O=C(N/N=C/c1ccc2c(c1)OCO2)C(=O)N/N=C/c1ccc2c(c1)OCO2` the EC50 was > 100 µM (inactive).
`O=C(NN=Cc1ccccc1)C(=O)NN=Cc1ccccc1` showed an EC50 of 30.7 µM.
